The text below walks through data of patent US9670242B2, “Tetracyclic anthraquinone derivatives” (Tianjin Hemay Bio-Tech Co., Ltd, priority 2012, dated 2017).

One series relates to SK-Br-3 cells. The series can be described thus: SK-Br-3 cell growth inhibition test (SRB assay). The format is cell-based, human. The settings on record: 72 h. The method, then:
SK-Br-3 Cell Growth Inhibition Test (SRB Assay)
(§1) II. Reagents and Consumable Materials
Culture medium: 85% DMEM+15% FBS; pancreatin (0.25% (w/v) solution was formulated with PBS, 0.53 mM of EDTA was added in the formulation); PBS; 96-well culture plate.
(§2) 1. A plate (10 cm) of cells in logarithmic growth phase that were normally cultured was collected;
(§3) 2. The culture solution was sucked out. The plate was washed with 5 mL of PBS once or twice;
(§4) 3. 1.5 mL of 0.25% pancreatin was added to the plate to infiltrate the cells;
4. The pancreatin was sucked out. The culture plate was placed in an incubator. Digestion was carried out for about 2 min at 37° C.;
5. 4 mL of complete culture solution was added to the culture plate to stop the digestion. The cells were carefully scoured with micropipette (1 mL) to give a uniform single cell suspension. The suspension was implanted into a 96-well cell culture plate by 10000 cells/100 μL per well. The culture plate was incubated overnight under 5% CO2 at 37° C. In day 2, 100 μL of culture solution comprising a compound was added in each well. The plate was further incubated for 72 h under 5% CO2 at 37° C.;
(§5) 6. The culture solution was sucked out. 100 uL of TCA fixed cells which were diluted to 10% were added to each well. The plate was kept in a refrigerator for 1 h at 4° C.
7. TCA stationary liquid was sucked out. […]
13. OD values were determined at […]. […]
For orientation: Sulforhodamine B stains cellular protein and so reports cell mass.

A further series relates to NCI-446 cells. Put plainly: NCI-446 cell growth inhibition test (MTT assay). The series is classed as cell-based, human. The settings on record: 72 h. The method, then:
NCI-446 Cell Growth Inhibition Test (MTT Assay)
II. Reagents and Consumable Materials Culture medium: 90% RPMI1640+10% FBS (fetal calf serum); Pancreatin (0.25% (w/v) solution was formulated with PBS, 0.53 mM of EDTA was added in the formulation); PBS; 96-well culture plate.
as §2
2. The culture solution was sucked out. The plate was washed with 5 ml of PBS once or twice;
(§6) 3. PBS was sucked out. 1.5 mL of 0.25% pancreatin was added to the plate to infiltrate the cells for 1 min;
(§7) 4. The culture plate was placed in an incubator. Digestion was carried out for about 3 min at 37° C.;
5. 3 mL of complete culture solution was added to the culture plate to stop the digestion. The cells were carefully scoured with micropipette (1 mL) to give a uniform cell suspension. The suspension was implanted into a 96-well cell culture disc by 4000 cells/100 μL per well. The culture plate was incubated overnight under 5% CO2 at 37° C. In day 2, 100 μL of culture solution comprising a compound was added in each well. The plate was further incubated for 72 h under 5% CO2 at 37° C.;
(§8) 6. The culture solution was sucked out;
(§9) 7. 100 μL of serum-free culture solution containing 0.5 mg/mL MTT was added in each well. The plate was incubated for 3 h;
(§10) 8. The culture solution was carefully sucked out;
9. […]
(§11) 10. OD values were determined at 490 nM. […]

The next series concerns Hep3B cells. The series can be described thus: Hep3B cell growth inhibition test (SRB assay). The format is cell-based. The settings on record: 72 h. The protocol: Hep3B Cell Growth Inhibition Test (SRB Assay)
as §1
Culture medium: 90% RPMI-1640+10% FBS; Pancreatin (0.25% (w/v) solution was formulated with PBS, 0.53 mM of EDTA was added in the formulation); PBS; 96-well culture plate.
as §2, §3, §4
4. The pancreatin was sucked out. The culture plate was placed in an incubator. Digestion was carried out for about 3 min at 37° C.;
5. 4 mL of complete culture solution was added to the culture plate to stop the digestion. The cells were carefully scoured with micropipette (1 mL) to give a uniform single cell suspension. The suspension was implanted into a 96-well cell culture plate by 5000 cells/100 μL per well. The culture plate was incubated overnight under 5% CO2 at 37° C. In day 2, 100 μL of culture solution comprising a compound was added in each well. The plate was further incubated for 72 h under 5% CO2 at 37° C.;
as §5
7. TCA stationary liquid was sucked out. Each well was washed with 150 μL of ddH2O five times;
8. After the stationary liquid was cleansed, the plate was dried in the air at the room temperature;
9. 60 μL of SRB staining solution was added in each well. The well was stained for 15 min at the room temperature;
10. The SRB staining solution was sucked out. Each well was washed with 150 μL of 1% glacial acetic acid five times;
11. After the SRB staining solution was cleansed, the plate was dried in the air at the room temperature;
12. 100 μL of 10 mM Tris was added in each well. The plate was vibrated to dissolve out SRB;
13. OD values were determined at 570 nM.
IV. Results and Treatments
1. Calculation of Relative Inhibition Ratio The inhibition ratio of the compound on cell growth=(PC−n)/(PC−NC)×100% […]

Another series has as its system NCI-H460 cells. The series can be described thus: NCI-H460 cell growth inhibition test (MTT assay). The format is cell-based, human. The settings on record: NCI-460 cells (NCI-H460 in method), 72 h. The protocol:
NCI-H460 Cell Growth Inhibition Test (MTT Assay)
as §1
Culture medium: 90% RPMI1640+10% FBS (fetal calf serum); Pancreatin (0.25% (w/v) solution was formulated with PBS, 0.53 mM of EDTA was added in the formulation); PBS; 96-well culture plate.
as §2, §3, §6, §7
5. 3 mL of complete culture solution was added to the culture plate to stop the digestion. The cells were carefully scoured with micropipette (1 mL) to give a uniform cell suspension. The suspension was implanted into a 96-well cell culture disc by 2000 cells/100 μL per well. The culture plate was incubated overnight under 5% CO2 at 37° C. In day 2, 100 μL of culture solution comprising a compound was added in each well. The plate was further incubated for 72 h under 5% CO2 at 37° C.;
as §8, §9, §10
9. […]
as §11

In another series the test system is BxPc-3 cells. The series can be described thus: BxPc-3 cell growth inhibition test (MTT assay). The settings on record: growth inhibition at 2000 nM, 70 h. The format is cell-based, human. The procedure, abridged:
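BxPC-3 human pancreatic cancer cells at 5000 per well in RPMI-1640 with 10% FBS were treated with compound from day 2 for 70 h at 37 °C, 5% CO2. Viability was measured by MTT (0.5 mg/mL, 3 h) with DMSO solubilisation and OD 490 nm. Inhibition ratio = (PC−n)/(PC−NC)×100%.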
(Formazan colour is commonly taken as a measure of viable cells.)

Series [1] can be described thus: Solubility of the compound in water. The format is physicochemical.

What is called IC50 is the concentration needed to halve the response being measured. The low end stands for greater potency in that assay, the high end for weaker potency in that assay. For `COc1cccc2c1C(=O)c1c(O)c3c(c(O)c1C2=O)CC(O)(C(=O)COC(=O)CCC(=O)O)CC3OC1CC(n2cccc2)C(O)C(C)O1` (stereo not shown) [Compound A, 3′-pyrrolyldoxorubicin-14-oxo-succinic acid monoester, reference compound], the IC50 with SK-Br-3 cells turned out to be 93 nM; with NCI-446 cells, 234 nM; with Hep3B cells it was 444 nM; in the series with NCI-H460 cells, 21 nM.

In the case of `COc1cccc2c1C(=O)c1c(O)c3c(c(O)c1C2=O)CC(O)(C(=O)COC(=O)CCC(=O)NCCOCCO)CC3OC1CC(n2cccc2)C(O)C(C)O1` (stereo not shown) [Example 62], the “Inhibition Ratio (%)” value in the series on BxPc-3 cells is 82.5%.

For the compound `CC(=O)O.COc1cccc2c1C(=O)c1c(O)c3c(c(O)c1C2=O)CC(O)(C(=O)COC(=O)CCC(=O)NCCCN1CCN(C)CC1)CC3O[C@H]1C[C@H](n2cccc2)[C@H](O)[C@H](C)O1` (stereo partly drawn) [Example 81, 10-((3′-(pyrrol-1-yll)-2′,3′,6′-trideoxy-alphal-l-lyxo-hexylpyranyl)oxy)-7,8,9,10-tetrahydro-6,8,11-trihydroxy-13-oxo-14-(4-((3-(4-methylpiperazin-1-yl)propyl)amino)-4-oxo-butyrato)-1-methoxy-5,12-naphthalenedione acetate], in the series on BxPc-3 cells, the “Inhibition Ratio (%)” value was 80.7%. In addition, the “solubility of the compound in water” value in series [1] is “more than 7 mg/ml”.
